Assays:
Assay type in all cases: in vivo
A. gambiae sensu lato [1] = assay: Dual choice attraction bioassay (Y-tube olfactometer); conditions: added to RBCs
Experimental: Mosquitoes used in this study were from the laboratory colony of A. gambiae sensu lato (Keele line, University of Glasgow), which was produced by balanced interbreeding of four A. gambiae s.s. strains (H. Hurd, et al. Evolution, 59, 2560-2572 (2005)). Larvae were reared under standard insectary conditions (27±1° C., 70% humidity, 12 h light: 12 h dark cycle) and fed on TetraMin fish flakes (Tetra ltd., Germany). Pupae were transferred into holding cages for emergence. Emerged adults were fed ad libitum on 5% glucose solution, supplemented with 0.05% (w/v) 4-aminobenzoic acid (PABA, Sigma-Aldrich), through soaked filters on top of the 2 ml tubes and with soaked filter pads inside cages. Red blood cells (RBCs) were washed with Roswell Park Memorial Institute (RPMI) medium and stored in RPMI at 50% haematocrit at 4° C. until use. To measure the effect of HMBPP on mosquito fitness, RBCs stored in RPMI were centrifuged at 2500×g for 5 min followed by replacement of the medium with AB serum for a final haematocrit of 40%. HMBPP (stock concentration at 4 mM in Nanopure water, stored at −80° C.) was diluted to 10 μM in 1 ml RBC suspension, and the corresponding volume of Nanopure water was added to the control RBCs. All experiments were, unless otherwise stated, conducted on 5-7 days post-emergence female mosquitoes maintained in separated cages (approximately 210 individuals per cohort) and fed RBCs either with or without HMBPP for 30 min. All experiments were performed in triplicates.
Initial experiments were performed using a Y-tube olfactometer (length of the central cylinder and two arms: 25/15/15 cm respectively, inner diameter: 5 cm; see FIG. 1a). For each experiment, 180 female mosquitoes were individually placed in a release chamber and flown one by one. Females flew towards the upwind end (airflow 3 L min^−1) and entered one of two trapping chambers through which odour released from nearby membrane feeders passed (5 cm distance to each trapping chamber). Three experiments were conducted. In the first experiment, the membrane feeders were loaded with RBCs with or without HMBPP, while in the second they were loaded with serum with or without HMBPP. The third experiment was performed with a 5% glucose with 0.05% PABA solution with or without HMBPP. To control for possible spatial effects, the location of treatment at each olfactometer arm was switched every 30 minutes (˜15 mosquitoes flied one by one in each 30 minutes). Each replacement (feeder rotation with fresh RBCs) was counted as an experimental replicate (experimental block). Mosquitoes reaching any of the trapping chambers were considered to have made a choice. Each experiment was repeated six times with in total 180 mosquitoes per treatment.

A. gambiae s.l. = assay: Olfactometer bioassay (larger Y-tube olfactometer / wind tunnel assay); conditions: RBCs+CO2 vs hRBCs, FIG. 2A
Experimental: Behavioural experiments were performed using different odour sources with and without pulsed CO2 stimuli in a Plexiglas Y shaped olfactometer (9.5 cm i.d.×length of the central cylinder and two arms: 120/120/120 cm respectively), illuminated from above at 280 lx. A charcoal-filtered and humidified air stream (25±2° C., RH 65±2%) passed through stainless steel mesh screens at 30 cm s^−1 to generate a laminar flow in the olfactometer. Odors were introduced into the air stream of each arm at the downwind end. […] Odor sources consisted of either RBC-based treatments or headspace extracts. RBC-based treatments included RBCs alone, hRBCs, giRBCs or ippRBCs (RBCs supplemented with HMBPP, gametocytes or IPP), as well as RBCs with supernatants from gametocyte-infected RBCs, or RBCs supplemented with the synthetic odour blend. Headspace extracts collected from hRBCs and giRBCs were used. Treatments including RBCs were heated to 37° C. prior to being pumped (150 ml min^−1) into the airstream of each arm separately. The blend and headspace extracts were delivered to each arm via a wick dispenser. Carbon dioxide (Strandmöllen) was introduced into a plume generator that was placed behind the metal screens to create a homogenous-pulsed flow, which was regulated by a stimulus controller (SEC-2/b, Syntech, Löptin Germany). […]

A. gambiae sensu lato [2] = assay: Fosmidomycin assay (feeding on media of FR-900098-treated, IPP-rescued parasite culture); conditions: supplemented with IPP, 90 s feeding, FIG. 1D
Experimental: The fosmidomycin assay was carried out as previously described (12). 48 hours (h) after the initiation of antibiotic treatment (FR-900098, the N-acetyl analogue to fosmidomycin), asexual parasite cultures were rescued by supplementation with 200 μM IPP for 48 h of continued passaging. Media from the rescued culture were collected and offered to mosquitoes, in comparison with media from control parasites (without antibiotic treatment). Fifty mosquitoes, isolated in two separate cages, were offered different treatments. Each group was allowed to feed on its own membrane feeder for 90 s.

## C/C(=C\CO)CO [(2E)-2-methylbut-2-ene-1,4-diol, reference compound]
A. gambiae sensu lato [1]
  effect on the attraction of mosquitoes to RBCs: had no effect

## O=C=O [carbon dioxide, reference compound]
A. gambiae s.l.
  attraction to RBCs supplemented with carbon dioxide versus hRBCs: not sufficient to reproduce the full mosquito attraction to hRBCs

## CC(=O)N(O)CCCP(=O)(O)O [fosmidomycin derivative]
A. gambiae sensu lato [2]
  mosquito feeding after block of HMBPP synthesis in tiRBCs: reduction of feeding to control levels

Source: US11638424B2, “Mosquito attractant formulations and uses thereof” (priority 2017, dated 2023)
